From patent US20260248766A1, “GLUCOKINASE ACTIVATOR FOR COGNITIVE DISORDERS AND NEURODEGENERATIVE DISEASES” (HUA MEDICINE (SHANGHAI) LTD., priority 2023, published 2026)

Legend:
Assay type in all cases: in vivo, rat
[1] = test system: glucose transporter 1 (GLUT1); test: Western blot of GLUT1 in hippocampus of GK rats; details: hippocampus of GK rats after long-term treatment; FIG. 8
From the text: (§1) The tissue sampling, protein extraction and quantification, preparation of the denaturated protein samples, and protein gel electrophoresis were completed successively using the steps (I) to (IV) of the above example 2.
(§2) Then, the gel obtained from the electrophoresis was used for membrane transfer. Biomarkers GLUT1, GLUT3, and GAPDH were transferred to a membrane using a semi-dry transfer method. The membrane was assembled in the following order: negative electrode-filter paper-gel-PVDF membrane-filter paper-positive electrode. The membrane transfer was performed at a constant current of 0.2 A at room temperature for 65 minutes.
(§3) After the membrane transfer was completed, the PVDF membranes (GLUT1, GLUT3, GAPDH) were blocked with non-fat milk at room temperature for 1 hour.
(§4) Calculation of the relative expression level of a protein: The western blot images were quantified using an image processing software ImageJ, and the gray value of a target band was measured and used to characterize the protein expression level of the target band. The gray value of a target protein was divided by the gray value of the internal reference protein GAPDH to perform normalization, which characterized the relative expression level of the target band. Statistical analysis was performed on the normalized value of each target band.

GK rats [2] = test: Fasting blood glucose in GK rats under long-term treatment; details: 8 mg/kg by gavage twice daily from six weeks of age, tested at weeks 6, 8, 12, 16, 20, 29, 31, FIG. 1
From the text: Goto-Kakizaki (GK) rats are a non-obese, spontaneously occurring type 2 diabetes rat model obtained through repeated inbreeding of Wistar rats with glucose tolerance at the upper limit over several generations. […] The hippocampus is a key functional brain region regulating learning and memory abilities. Due to the presence of progressive diabetes symptoms, typical neurodegenerative diseases, and memory deficits, GK rats can be used to evaluate the effects of a drug on preventing memory decline.
(§5) GK rats were randomly divided into the following treatment groups: a GK rat-solvent treatment group (n=9) and a GK rat-Dorzagliatin (8 mg/kg) treatment group (n=8). Age-matched Wistar rats were used as the normal control group, i.e., the Wistar rat-solvent group (n=9). The treatment began at six weeks of age. The rats were administered either the solvent or Dorzagliatin by gavage twice daily, morning and evening. Peripheral blood was collected multiple times from the animals throughout the growth cycle, and the fasting blood glucose levels of the animals were tested (the fasting blood glucose levels of the three groups of rats were tested and analyzed at weeks 6, 8, 12, 16, 20, 29, and 31).

GK rats [3] = test: Morris water maze spatial memory test (probe test) in GK rats; details: 8 mg/kg by gavage twice daily, about 27 weeks of treatment (33 weeks old), 1 minute probe test
Experimental: as §5
The Morris water maze test is a commonly used behavioral method to assess the spatial memory, working memory, and spatial discrimination abilities of rodents. […]
Preparation of the experimental environment: The laboratory environment was kept quiet. […] During the test, the latent period of escape, swimming path (distance), speed, and quadrant preference of a rat were recorded using the ANY-maze system. […]
Spatial memory test (probe test): The spatial memory test was performed 24 hours after the end of the training phase. […] The time spent in the original platform quadrant and the swimming distances were recorded, and the data of each group of animals were statistically analyzed.

[4] = test system: ionotropic glutamate receptor subunit GluN2B; test: Western blot of GluN2B in hippocampus of GK rats; details: hippocampus of GK rats after long-term treatment; FIG. 12
From the text: as §1
(§6) Then, the gel obtained from the electrophoresis was used for membrane transfer. Biomarkers GluN2A and GluN2B were transferred to a membrane using a wet transfer method. The membrane was assembled in the following order: negative electrode-sponge-filter paper-gel-PVDF membrane-filter paper-sponge-positive electrode. The membrane transfer was performed at a constant voltage of 100 V in an ice bath for 70 minutes.
(§7) After the membrane transfer was completed, the PVDF membranes were blocked with BSA or non-fat milk (GluN2A and GluN2B membranes were blocked with BSA, and GAPDH membrane was blocked with non-fat milk), respectively, at room temperature for 1 hour. […] The eluted PVDF membranes were scanned using an electrochemiluminescence (ECL) method with a contact-based non-destructive quantitative imaging instrument (E-blot) to give a western blot image.
(§8) Calculation of the relative expression level of a protein: The western blot images were quantified using an image processing software ImageJ, and the gray value of a target band was measured and used to characterize the protein expression level of the target band. […]

[5] = test system: insulin receptor isoform IR-B protein; test: Western blot of IR-B protein in hippocampus of GK rats; details: hippocampus of GK rats after 37 weeks of treatment (43 weeks old); FIG. 6
Experimental: (§9) GK rats were euthanized after 37 weeks of treatment, i.e., when the rats were 43 weeks old, and hippocampal tissue of the GK rats was collected for western blotting to detect the protein expression levels of the biomarkers.
(§10) Animals under anesthesia were rapidly decapitated and their brains were removed in a hypothermic environment. The hippocampal tissue was separated on ice, placed in cryovials, flash-frozen in liquid nitrogen, and then stored in a −80° C. freezer for later use.
(§11) • (1) The tissue homogenizer (TissueLyser II high-throughput tissue homogenizer, QIAGEN) was pre-cooled at −20° C. The hippocampal tissue was taken out from the −80° C. freezer. […]
(§12) Based on the protein concentration determined in step (II), an appropriate amount of protein lysis buffer was added to adjust the protein concentration of each group to a suitable level. […]
(§13) After the membrane transfer was completed, the PVDF membranes were blocked with non-fat milk at room temperature for 1 hour. […] The eluted PVDF membranes were scanned using an electrochemiluminescence (ECL) method with a contact-based non-destructive quantitative imaging instrument (E-blot) to give a western blot image. […]

[6] = test system: ionotropic glutamate receptor subunit GluN2A; test: Western blot of GluN2A in hippocampus of GK rats; details: hippocampus of GK rats after long-term treatment; FIG. 11
From the text: as §1, §6, §7, §8

[7] = test system: insulin receptor isoform IR-A protein; test: Western blot of IR-A protein in hippocampus of GK rats; details: hippocampus of GK rats after 37 weeks of treatment (43 weeks old); FIG. 5
Experimental: as §9, §10, §11, §12, §13

[8] = test system: glucose transporter 3 (GLUT3); test: Western blot of GLUT3 in hippocampus of GK rats; details: hippocampus of GK rats after long-term treatment; FIG. 9
From the text: as §1, §2, §3, §4

CC(C)C[C@@H](C(=O)Nc1ccn(C[C@@H](O)CO)n1)N1CC(Oc2ccccc2Cl)=CC1=O [Dorzagliatin]
normalized value of GLUT1 band (gray value / GAPDH, mean±SEM) [1]: 1.67±0.06
fasting blood glucose levels vs GK rat-solvent group (GK rats [2]): significantly lower than those of the GK rat-solvent group
time spent in the original platform quadrant (mean±SEM) (GK rats [3]; FIG. 2): 20.1 s
swimming distance in the original platform quadrant (mean±SEM) (GK rats [3]; FIG. 3): 4.21 m
normalized value of GluN2B band (gray value / GAPDH, mean±SEM) [4]: 0.87±0.02
normalized value of IR-B protein band (gray value / GAPDH, mean±SEM) [5]: 1.64±0.06
normalized value of GluN2A band (gray value / GAPDH, mean±SEM) [6]: 1.05±0.07
normalized value of IR-A protein band (gray value / GAPDH, mean±SEM) [7]: 1.46±0.08
normalized value of GLUT3 band (gray value / GAPDH, mean±SEM) [8]: 1.22±0.13
